Experimental data as given in patent US9663523B2, “BET protein-inhibiting 5-aryltriazoleazepines” (BAYER PHARMA AKTIENGESELLSCHAFT, priority 2012, dated 2017).

How the values were obtained:
[1] = target: BRD4(1) (amino acids 44-168) (Homo sapiens (Human), UniProt O60885); assay: BRD4 binding strength, TR-FRET (HTRF) assay of BRD4(1) / acetylated histone H4 peptide interaction; conditions: inhibition of BRD4(1)/Ac-H4 peptide interaction
Excerpt: To assess the BRD4 binding strength of the compounds according to the invention, the ability thereof to inhibit the interaction between BRD4 and acetylated histone H4 in a dose-dependent manner was quantified. For this purpose, a time-resolved fluorescence resonance energy transfer (TR-FRET) assay was used, which measures the binding between N-terminally His6-tagged BRD4(1) (amino acids 44-168) and a synthetic acetylated histone H4 (Ac-H4) peptide with sequence […]-biotin. The recombinant BRD4 protein produced in-house according to Filippakopoulos et al., Cell, 2012, 149:214-231 was expressed in E. coli and purified by means of (Ni-NTA) affinity and (Sephadex G-75) size exclusion chromatography. The Ac-H4 peptide can be purchased, for example, from Biosyntan (Berlin, Germany). […] For this purpose, 100-fold concentrated solutions in DMSO were prepared by serial dilutions (1:3.4) of a 2 mM stock solution into a clear, 384-well microtitre plate (Greiner Bio-One, Frickenhausen, Germany). From this, 50 nl were transferred into a black test plate (Greiner Bio-One, Frickenhausen, Germany). […] This was followed by a 10-minute incubation step at 22° C. for the pre-equilibration of putative complexes between BRD4 and the substances. Subsequently, 3 μl of a solution of 1.67 times the concentration (in assay buffer) consisting of Ac-H4 peptide (83.5 nM) and TR-FRET detection reagents [16.7 nM anti-6His-XL665 and 3.34 nM streptavidin cryptate (both from Cisbio Bioassays, Codolet, France), and 668 mM potassium fluoride (KF)] were added. The mixture was then incubated in the dark at 22° C. for one hour and then at 4° C. overnight. The formation of BRD4/Ac-H4 complexes was determined by the measurement of the resonance energy transfer from the streptavidin-Eu cryptate to the anti-6His-XL665 antibody present in the reaction. […] The ratio of the emissions at 665 nm and at 622 nm was taken as an indicator of the amount of BRD4/Ac-H4 complexes formed.

MOLM-13 cells = assay: Cell proliferation (alamarBlue), MOLM-13; type: cell-based; conditions: Homo sapiens, acute myeloid leukaemia cell line, 96 hours incubation
Procedure: (§1) The ability of the compounds according to the invention to inhibit the proliferation of various cell lines was determined.
(§2) Cell viability was determined by means of the alamarBlue® reagent (Invitrogen). The cells were sown at different densities (MOLM-13, LAPC-4, MOLP-8 and MDA-MB-231: 4000 cells/well; B16F10: 400 cells/well) in 100 μl of growth medium on 96-well microtitre plates. After overnight incubation at 37° C., the fluorescence values (CI values) were determined. The plates were then treated with various substance dilutions and incubated at 37° C. for 96 hours (MOLM-13, MDA-MB-231 and B16F10 cells), 120 hours (MOLP-8 cells) or 168 hours (LAPC-4 cells). Subsequently, the fluorescence values were determined (CO values). For the data analysis, the CI values were subtracted from the CO values and the results were compared between cells which had been treated with various dilutions of the substance or only with buffer solution.
(§3) The compounds according to the invention were tested in the cell lines in Table 2, which represent the indications specified by way of example:
(§4) The indications corresponding to the different cell lines can be found in Table 2.

LAPC-4 cells = assay: Cell proliferation (alamarBlue), LAPC-4; type: cell-based; conditions: Homo sapiens, LAPC4; prostate carcinoma (androgen receptor-positive) cell line, 168 hours incubation
Procedure: as §1
as §2, with “values).” for “values). For the data analysis, the CI values were subtracted from the CO values and the results were compared between cells which had been treated with various dilutions of the substance or only with buffer solution.”
as §3, §4

B16F10 cells = assay: Cell proliferation (alamarBlue), B16F10; type: cell-based; conditions: Mus musculus, B16-F10; melanoma cell line, 96 hours incubation
Procedure: as §1, §2, §3, §4

MOLP-8 cells = assay: Cell proliferation (alamarBlue), MOLP-8; type: cell-based; conditions: Homo sapiens, multiple myeloma cell line, 120 hours incubation
Procedure: as §1
as §2, with “values).” for “values). For the data analysis, the CI values were subtracted from the CO values and the results were compared between cells which had been treated with various dilutions of the substance or only with buffer solution.”
as §3, §4

MDA-MB-231 cells = assay: Cell proliferation (alamarBlue), MDA-MB-231; type: cell-based; conditions: Homo sapiens, mammary carcinoma cell line, 96 hours incubation
Procedure: as §1, §2, §3, §4

Row | Compound | IC50 [1] | IC50 (MOLM-13 cells) | IC50 (B16F10 cells) | IC50 (MDA-MB-231 cells) | IC50 (LAPC-4 cells) | IC50 (MOLP-8 cells)
1 | Cc1nnc2n1-c1ccccc1C(c1ccc(Cl)cc1)=CC2CC(=O)N1CCOCC1 (stereo not drawn) [Example 14, 2-[6-(4-chlorophenyl)-1-methyl-4H-[1,2,4]triazolo[4,3-a][1]-benzazepin-4-yl]-1-(morpholin-4-yl)ethanone] | 310 nM | 460 nM | 410 nM | 1010 nM | 210 nM | –
2 | Cc1nnc2n1-c1ccccc1C(c1ccc(Cl)cc1)=C[C@H]2CC(=O)N1CC2(CCS2(=O)=O)C1 [Example 19, (−)-2-[(4R)-6-(4-chlorophenyl)-1-methyl-4H-[1,2,4]triazolo[4,3-a][1]benzazepin-4-yl]-1-(1,1-dioxido-1-thia-6-azaspiro[3.3]hept-6-yl)ethanone] | – | 150 nM | 160 nM | 380 nM | 170 nM | 190 nM
3 | Cc1nnc2n1-c1ccccc1C(c1ccc(Cl)cc1)=CC2CC(=O)Nc1ccc2c(c1)CC(=O)N2 (stereo not drawn) [Example 20, 2-[6-(4-chlorophenyl)-1-methyl-4H-[1,2,4]triazolo[4,3-a][1]benzazepin-4-yl]-N-(2-oxo-2,3-dihydro-1H-indol-5-yl)acetamide] | 240 nM | 540 nM | 350 nM | 980 nM | 140 nM | –
4 | Cc1nnc2n1-c1ccccc1C(c1ccc(Cl)cc1)=CC2CC(=O)N1C2CCC1CC(=O)C2 (stereo not drawn) [Example 22] | 340 nM | 1730 nM | 840 nM | 2900 nM | 210 nM | –
5 | Cc1nnc2n1-c1ccccc1C(c1ccc(Cl)cc1)=CC2CC(=O)N1CC(Oc2ccccc2)C1 (stereo not drawn) [Example 24, 2-[6-(4-chlorophenyl)-1-methyl-4H-[1,2,4]triazolo[4,3-a][1]benzazepin-4-yl]-1-(3-phenoxyazetidin-1-yl)ethanone] | 220 nM | 2940 nM | 1050 nM | 2530 nM | 550 nM | –
6 | Cc1nnc2n1-c1ccccc1C(c1ccc(Cl)cc1)=C[C@H]2CC(=O)N1CC(Oc2ccccc2)C1 [Example 25, (−)-2-[(4R)-6-(4-chlorophenyl)-1-methyl-4H-[1,2,4]triazolo[4,3-a][1]benzazepin-4-yl]-1-(3-phenoxyazetidin-1-yl)ethanone] | 1400 nM | 1130 nM | 490 nM | 1330 nM | 170 nM | 590 nM
7 | Cc1nnc2n1-c1ccccc1C(c1ccc(Cl)cc1)=CC2CC(=O)N1CCC2(CCCC2)CC1 (stereo not drawn) [Example 28, 1-(8-azaspiro[4.5]dec-8-yl)-2-[6-(4-chlorophenyl)-1-methyl-4H-[1,2,4]triazolo[4,3-a][1]benzazepin-4-yl]ethanone] | 1400 nM | > 10000 nM | 7050 nM | > 10000 nM | 1200 nM | 6300 nM
8 | Cc1nnc2n1-c1ccccc1C(c1ccc(Cl)cc1)=CC2CC(=O)N1CCS(=O)(=O)C1 (stereo not drawn) [Example 30, 2-[6-(4-chlorophenyl)-1-methyl-4H-[1,2,4]triazolo[4,3-a][1]benzazepin-4-yl]-1-(1,1-dioxido-1,3-thiazolidin-3-yl)ethanone] | 80 nM | 850 nM | 490 nM | 1130 nM | 190 nM | –
9 | Cc1nnc2n1-c1ccccc1C(c1ccc(Cl)cc1)=C[C@H]2CC(=O)N1CCS(=O)(=O)C1 [Example 31, (−)-2-[(4R)-6-(4-chlorophenyl)-1-methyl-4H-[1,2,4]triazolo[4,3-a][1]benzazepin-4-yl]-1-(1,1-dioxido-1,3-thiazolidin-3-yl)ethanone] | 180 nM | 190 nM | 220 nM | 560 nM | 80 nM | –

The next lines start with results.

Row | IC50 [1] | IC50 (MOLM-13 cells) | IC50 (B16F10 cells) | IC50 (MDA-MB-231 cells) | Compound | IC50 (LAPC-4 cells) | IC50 (MOLP-8 cells)
10 | 130 nM | 360 nM | 550 nM | 2370 nM | Cc1nnc2n1-c1ccccc1C(c1ccc(Cl)cc1)=CC2CC(=O)N1CC2(COC2)C1 (stereo in doubt) [Example 4, (−)-2-[(4R)-6-(4-chlorophenyl)-1-methyl-4H-[1,2,4]triazolo[4,3-a][1]benzazepin-4-yl]-1-(2-oxa-6-azaspiro[3.3]hept-6-yl)ethanone] | 660 nM | 740 nM
11 | 50 nM | 330 nM | 220 nM | 380 nM | Cc1nnc2n1-c1ccccc1C(c1ccc(Cl)cc1)=CC2Cc1nc(C2CC2)no1 (stereo in doubt) [Example 37, (−)-(4R)-6-(4-Chlorophenyl)-4-[(3-cyclopropyl-1,2,4-oxadiazol-5-yl)methyl]-1-methyl-4H-[1,2,4]triazolo[4,3-a][1]benzazepine] | 310 nM | –
12 | 20 nM | 120 nM | 60 nM | 110 nM | Cc1nnc(CC2C=C(c3ccc(Cl)cc3)c3ccccc3-n3c(C)nnc32)o1 (stereo in doubt) [Example 38, (−)-(4R)-6-(4-chlorophenyl)-1-methyl-4-[(5-methyl-1,3,4-oxadiazol-2-yl)methyl]-4H-[1,2,4]triazolo[4,3-a][1]benzazepine] | 40 nM | 45 nM
13 | 130 nM | 270 nM | 230 nM | 480 nM | CCNC(=O)CC1C=C(c2ccc(Cl)cc2)c2ccccc2-n2c(C)nnc21 (stereo not drawn) [Example 12, 2-[6-(4-chlorophenyl)-1-methyl-4H-[1,2,4]triazolo[4,3-a][1]benzazepin-4-yl]-N-ethylacetamide] | 80 nM | –
14 | 220 nM | 530 nM | 460 nM | 1040 nM | Cc1nnc2n1-c1ccccc1C(c1ccc(Cl)cc1)=CC2CC(=O)N1CC(F)C1 (stereo not drawn) [Example 16, 2-[6-(4-chlorophenyl)-1-methyl-4H-[1,2,4]triazolo[4,3-a][1]benzazepin-4-yl]-1-(3-fluoroazetidin-1-yl)ethanone] | 260 nM | –
15 | 40 nM | 830 nM | 610 nM | 1360 nM | Cc1nnc2n1-c1ccccc1C(c1ccc(Cl)cc1)=CC2CC(=O)N1CCC(=O)C1 (stereo not drawn) [Example 26, 1-{[6-(4-chlorophenyl)-1-methyl-4H-[1,2,4]triazolo[4,3-a][1]benzazepin-4-yl]acetyl}pyrrolidin-3-one] | 310 nM | 380 nM
16 | 110 nM | 250 nM | 340 nM | 710 nM | Cc1nnc2n1-c1ccccc1C(c1ccc(Cl)cc1)=C[C@H]2CC(=O)N1CCC(=O)C1 [Example 27, (−)-1-{[(4R)-6-(4-chlorophenyl)-1-methyl-4H-[1,2,4]triazolo[4,3-a][1]benzazepin-4-yl]acetyl}pyrrolidin-3-one] | 180 nM | –
17 | 390 nM | 1810 nM | 800 nM | 2040 nM | Cc1nnc2n1-c1ccccc1C(c1ccc(Cl)cc1)=CC2CC(=O)N1CC2CCC(C1)O2 (stereo not drawn) [Example 32, 2-[6-(4-chlorophenyl)-1-methyl-4H-[1,2,4]triazolo[4,3-a][1]benzazepin-4-yl]-1-(8-oxa-3-azabicyclo[3.2.1]oct-3-yl)ethanone] | 250 nM | –
